Our source for the TGI values is PubChem BioAssay (NCI).

Test systems include 786-0 renal; A498 renal; COLO 205 colon; EKVX NSCLC; HCT-15 colon; K-562 leukemia; LOX IMVI melanoma; NCI-H226 lung; NCI-H522 lung; OVCAR-4 ovarian; HS 578T breast.
Holding throughout (test): growth of human tumour cells (NCI), 48 h

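Five concentrations, 48 hours, 96-well plates. TGI marks complete inhibition of growth.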 Some results are limits rather than exact numbers.

As for `CC(=O)N[C@@H](Cc1ccc(O)cn1)C(=O)NCc1ccc(Cl)cc1`, the TGI in the experiment with 786-0 renal, in the experiment on A498 renal, in the experiment with COLO 205 colon, with EKVX NSCLC, in the experiment with HCT-15 colon and in the experiment on K-562 leukemia was more than 100 µM throughout. The TGI in the experiment on LOX IMVI melanoma, in the experiment on NCI-H226 lung, in the experiment with NCI-H522 lung and with OVCAR-4 ovarian was more than 100 µM throughout.
`NC(CCC(=O)c1ccccn1)C(=O)O` (stereo not given): the TGI in the experiment with 786-0 renal, in the experiment with A498 renal, in the experiment on COLO 205 colon, in the experiment with EKVX NSCLC, in the experiment on HCT-15 colon and in the experiment with HS 578T breast was more than 100 µM throughout. In addition, the TGI with LOX IMVI melanoma, with NCI-H226 lung, in the experiment with NCI-H522 lung and in the experiment with OVCAR-4 ovarian was more than 100 µM throughout.
As for `Cc1ccc(S(=O)(=O)N/N=C2\C=CC3(CC2)C(=O)N(I)c2ccccc23)cc1` (stereo not given), the TGI in the experiment with 786-0 renal, in the experiment on A498 renal, with COLO 205 colon, in the experiment with EKVX NSCLC, in the experiment with HCT-15 colon and in the experiment on K-562 leukemia was more than 100 µM each time. In addition, the TGI with LOX IMVI melanoma, with NCI-H226 lung and with OVCAR-4 ovarian was more than 100 µM in each case.
In the case of `NC(Cc1ccccc1)C(=O)OCN1C(=O)C2C3C=CC(C2C1=O)C1C(=O)N(COC(=O)C(N)Cc2ccccc2)C(=O)C31` (stereo not given), the TGI with 786-0 renal was more than 100 µM; with COLO 205 colon, more than 100 µM; with EKVX NSCLC, more than 100 µM; in the experiment with HCT-15 colon, 78.4 µM; in the experiment with HS 578T breast it was more than 100 µM; with K-562 leukemia, 74.6 µM. Further, the TGI in the experiment with LOX IMVI melanoma is 42.2 µM; with NCI-H226 lung it was more than 100 µM; in the experiment on NCI-H522 lung, more than 100 µM.
For the compound `CN(C)C(=O)C(F)(F)C(c1ccccc1Br)C1C(=O)N(C)C(=O)N(C)C1=O` (stereo not given), the TGI in the experiment on 786-0 renal, in the experiment on A498 renal, in the experiment with COLO 205 colon, with EKVX NSCLC, in the experiment on HCT-15 colon and in the experiment with K-562 leukemia was more than 100 µM throughout. In addition, the TGI with LOX IMVI melanoma, in the experiment with NCI-H226 lung and with OVCAR-4 ovarian was more than 100 µM throughout.
`COc1ccc(OC)c2c(C(C)=O)cccc12`: the TGI in the experiment on 786-0 renal, in the experiment on A498 renal, with COLO 205 colon, in the experiment with EKVX NSCLC, in the experiment with HCT-15 colon and in the experiment with HS 578T breast was more than 100 µM in each case. The TGI with K-562 leukemia, with NCI-H226 lung and in the experiment on NCI-H522 lung was more than 100 µM each time.
Take `OCCc1ccsc1-c1sc(-c2cc(CCO)c(-c3sc(-c4cc(CCO)c(-c5sccc5CCO)s4)cc3CCO)s2)cc1CCO`: the TGI in the experiment on 786-0 renal worked out at 2.14 µM; with A498 renal, 3.65 µM; with COLO 205 colon, 5.03 µM; in the experiment on EKVX NSCLC it was 2.91 µM; in the experiment on HCT-15 colon, 3.52 µM; with HS 578T breast, 7.31 µM. In addition, the TGI with LOX IMVI melanoma came to 2.47 µM; in the experiment on NCI-H226 lung, 3.86 µM; in the experiment on NCI-H522 lung it was 2.36 µM; with OVCAR-4 ovarian, 2.52 µM.
With `COC1OC2COC(=O)c3cc(O)c(O)c(O)c3-c3c(cc(O)c(O)c3O)C(=O)OC2C(O)C1O` (stereo not given), the TGI in the experiment with 786-0 renal, in the experiment with COLO 205 colon, in the experiment on EKVX NSCLC, in the experiment with HCT-15 colon, with HS 578T breast and in the experiment with K-562 leukemia was more than 100 µM throughout. Moreover, the TGI in the experiment on LOX IMVI melanoma is 60 µM; with NCI-H226 lung, more than 100 µM; in the experiment with NCI-H522 lung, more than 100 µM; in the experiment on OVCAR-4 ovarian, more than 100 µM.
`CCOC(=O)[C@@]12C[C@](/C=C/OC)(O[Si](C)(C)C)[C@@]13c1cc(OC)c(OC)cc1CCN3C(=O)C2=O`: the TGI in the experiment with 786-0 renal, in the experiment with A498 renal, in the experiment with COLO 205 colon, in the experiment with EKVX NSCLC, in the experiment on HCT-15 colon and with HS 578T breast was more than 100 µM each time. The TGI in the experiment on K-562 leukemia, with LOX IMVI melanoma, with NCI-H226 lung and in the experiment on OVCAR-4 ovarian was more than 100 µM in each case.
As to `O=C(/C=C/c1ccc(-c2ccccc2)cc1)NCc1ccc(C(=O)NCCc2ccccc2)cc1`, the TGI in the experiment with 786-0 renal, in the experiment on A498 renal, in the experiment with COLO 205 colon, in the experiment on EKVX NSCLC, in the experiment on HCT-15 colon and in the experiment with K-562 leukemia was more than 100 µM in each case. Moreover, the TGI in the experiment with LOX IMVI melanoma, with NCI-H226 lung, with NCI-H522 lung and in the experiment on OVCAR-4 ovarian was more than 100 µM throughout.
`Cc1sc(/N=C/C2=C(O)CC(C)(C)CC2=O)nc1-c1ccccc1`: the TGI with 786-0 renal, with COLO 205 colon, in the experiment on EKVX NSCLC, in the experiment with HCT-15 colon, in the experiment with HS 578T breast and in the experiment with K-562 leukemia was more than 100 µM in each case. In addition, the TGI in the experiment on LOX IMVI melanoma, in the experiment with NCI-H226 lung, with NCI-H522 lung and in the experiment with OVCAR-4 ovarian was more than 100 µM each time.
For the compound `C[C@]12CC[C@H]3[C@@H](CC=C4C[C@@H](O)CC[C@@]43C)[C@@H]1C/C(=C\c1cccnc1)[C@@H]2O`, the TGI in the experiment with 786-0 renal is 96 µM; in the experiment with A498 renal, 42.9 µM; with COLO 205 colon, more than 100 µM; with EKVX NSCLC it was 35.8 µM; with HCT-15 colon, more than 100 µM; with HS 578T breast it was 33.3 µM. The TGI was 4.46 µM in the experiment with LOX IMVI melanoma, 57.4 µM with NCI-H226 lung, 42.5 µM with NCI-H522 lung and 58.9 µM in the experiment on OVCAR-4 ovarian.
For the compound `C=CCOCC1C2CCC3(OCCO3)C21` (stereo not given), the TGI in the experiment with 786-0 renal, with COLO 205 colon, in the experiment on EKVX NSCLC, in the experiment with HCT-15 colon, in the experiment on K-562 leukemia and in the experiment with LOX IMVI melanoma was more than 100 µM throughout. Besides, the TGI with NCI-H226 lung, in the experiment with NCI-H522 lung and in the experiment with OVCAR-4 ovarian was more than 100 µM in each case.
